Assay results reported in patent US20210269661A1, “INK COMPOSITIONS” (HEWLETT-PACKARD DEVELOPMENT COMPANY, L.P., priority 2018, published 2021).
Where two headings read alike, the source gives them in different places.

Test: Partition coefficient of organic co-solvents (log P 1-octanol/water)
Description: The hydrophilicity of the organic co-solvent can be quantified as a partition coefficient. As used herein, “partition coefficient” refers to a concentration ratio of a compound in an equilibrium mixture of two immiscible phases, and can be a measure of the difference in solubility of the compound in the two immiscible phases. Formula I provides an equation of quantifying the hydrophilicity of the organic co-solvents of the present disclosure, as follows: […]

[1] = equilibrium mixture of 1-octanol and water

Partition Coefficient (log P1-octanol/water)	SMILES	Partition Coefficient (log P1-octanol/water) [1]
–	O=C1CCCN1 [2-pyrrolidone]	−0.10 log P1-octanol/water
−0.40 log P1-octanol/water	CC1(C)NC(=O)NC1=O [5,5-dimethyl hydantoin]	–
2.34 log P1-octanol/water	CCCCCCCCO [Ink 1-octanol, 1-octanol]	–
−0.40 log P1-octanol/water	O=C1CCCN1CCO [N-(2-hydroxyethyl)-2-pyrrolidinone]	–
−1.39 log P1-octanol/water	CC1(C)C(=O)N(CCO)C(=O)N1CCO [di-(2-hydroxyethy)-5,5-dimethylhydantoin]	–
–	CCC(CO)(CO)CO [ethylhydroxy propanediol]	−0.50 log P1-octanol/water
−1.00 log P1-octanol/water	OCCOCCOCCO [triethylene glycol]	–

SMILES	Partition Coefficient (log P1-octanol/water)	Partition Coefficient (log P1-octanol/water) [1]
O [water]	−0.825 log P1-octanol/water	–
